Consider 16 molecules from patent US7491794B2, “Macrocyclic compounds as inhibitors of viral replication” (Intermune, Inc., priority 2003, dated 2009).

Where two headings read alike, the source gives them in different places.

One experiment concerns the target T1, NS3-NS4A protease (Hepatitis C virus genotype 1a, UniProt P27958).
T1 construct: Recombinant E. coli or Baculovirus full-length NS3 was diluted to 3.33 μM with assay buffer; made in house; host or cells: E. coli or baculovirus (BV) system
Description: NS3-NS4A protease assay (NS3 inhibition assay, RETS1 substrate), Section B. The format is biochemical. The method in brief:
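Kinetic fluorescence read (335 nm excitation, 495 nm emission, 30 min) of RETS1 cleavage by NS3/NS4A-2 complex, 2 nM E. coli or 3 nM baculovirus NS3, after 10 min room-temperature compound pre-incubation. Four-parameter-fit IC50s converted to Ki by Cheng–Prusoff, Ki=IC50/(1+[S]/Km).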

Experiment [1] relates to HCV sub-genomic replicon, GS4.3. Description: Quantitation by ELISA of NPTII in the HCV sub-genomic replicon, GS4.3, Section B. The class given is cell-based. The following applies: Hepatitis C virus, read-out: Replicon EC50. The method in brief: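 NPTII marker protein in lysates was quantified by ELISA read at 450 nm after 72 h inhibitor exposure (3-fold series, final DMSO 1%, G418-free medium) of HuH-7 cells stably harbouring the subgenomic HCV replicon. Values relative to DMSO-treated controls; 4-parameter curves gave EC50.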

T1 sequence (P27958 1027-1657): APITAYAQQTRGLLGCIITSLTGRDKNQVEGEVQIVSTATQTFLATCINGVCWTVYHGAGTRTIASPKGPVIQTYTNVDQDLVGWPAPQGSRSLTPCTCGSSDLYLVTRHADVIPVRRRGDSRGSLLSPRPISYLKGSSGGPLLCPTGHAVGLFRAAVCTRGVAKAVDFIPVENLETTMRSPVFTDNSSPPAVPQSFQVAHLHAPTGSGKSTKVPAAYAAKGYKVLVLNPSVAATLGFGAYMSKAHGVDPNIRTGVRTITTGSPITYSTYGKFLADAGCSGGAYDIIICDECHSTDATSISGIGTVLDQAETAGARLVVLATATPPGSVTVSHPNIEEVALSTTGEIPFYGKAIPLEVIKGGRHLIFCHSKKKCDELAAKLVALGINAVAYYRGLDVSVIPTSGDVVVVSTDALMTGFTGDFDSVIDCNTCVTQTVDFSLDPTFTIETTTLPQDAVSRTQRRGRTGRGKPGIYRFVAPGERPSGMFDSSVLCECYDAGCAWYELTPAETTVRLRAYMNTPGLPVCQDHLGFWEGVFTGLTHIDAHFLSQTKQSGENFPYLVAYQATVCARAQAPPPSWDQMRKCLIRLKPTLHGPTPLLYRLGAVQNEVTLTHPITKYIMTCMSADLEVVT

Regarding `CC(C)(C)OC(=O)N[C@H]1CCCCC/C=C\[C@@H]2C[C@@]2(C(=O)NS(=O)(=O)C2CC2)NC(=O)[C@@H]2C[C@@H](OC(=O)N3Cc4c(F)ccc(F)c4C3)CN2C1=O` [AR00334399, (1S,4R,6S,14S,18R)-4,7-Difluoro-1,3-dihydro-isoindole-2-carboxylic acid 14-tert-butoxycarbonylamino-4-cyclopropanesulfonylaminocarbonyl-2,15-dioxo-3,16-diaza-tricyclo[14.3.0.0^4,6]nonadec-7-en-18-yl ester], the IC50 (commonly the concentration needed to halve the response being measured) at NS3-NS4A protease (read-out: NS3-NS4A IC50) was under 100 nM. Further, in experiment [1] (GS4.3 cells, 72 h incubation), the EC50 (in general, the concentration giving half of the maximal effect) is under 100 nM.

On NS3-NS4A protease, `CC(C)[C@@H](NC(=O)c1cnccn1)C(=O)N[C@H]1CCCCC/C=C\[C@@H]2C[C@@]2(C(=O)O)NC(=O)[C@@H]2C[C@@H](OC(=O)N3CCc4ccccc4C3)CN2C1=O` [AR00301338, (1S,4R,6S,14S,18R)-18-(3,4-Dihydro-1H-isoquinoline-2-carbonyloxy)-14-{3-methyl-2-[(pyrazine-2-carbonyl)-amino]-butyrylamino}-2,15-dioxo-3,16-diaza-tricyclo[14.3.0.0^4,6]nonadec-7-ene-4-carboxylic acid] came in with an IC50 of under 100 nM. In experiment [1] (72 h), the EC50 is under 10000 nM.

Turning to `O=C(N[C@H]1CCCCC/C=C\[C@@H]2C[C@@]2(C(=O)NS(=O)(=O)C2CC2)NC(=O)[C@@H]2C[C@@H](OC(=O)N3CCc4ccccc4C3)CN2C1=O)OCCF` [AR00304161, (1S,4R,6S,14S,18R)-3,4-Dihydro-1H-isoquinoline-2-carboxylic acid 4-cyclopropanesulfonylaminocarbonyl-14-(2-fluoro-ethoxycarbonylamino)-2,15-dioxo-3,16-diaza-tricyclo[14.3.0.0^4,6]nonadec-7-en-18-yl ester], on NS3-NS4A protease (read-out: NS3-NS4A IC50), the half-maximal inhibitory concentration (IC50) is under 100 nM. Further, in experiment [1] (GS4.3 cells, 72 h incubation), the EC50 is under 100 nM.

For `O=C(NC1CCCC1)N[C@H]1CCCCC/C=C\[C@@H]2C[C@@]2(C(=O)NS(=O)(=O)C2CC2)NC(=O)[C@@H]2C[C@@H](OC(=O)N3Cc4cc(Cl)c(Cl)cc4C3)CN2C1=O` [AR00320575, (1S,4R,6S,14S,18R)-5,6-Dichloro-1,3-dihydro-isoindole-2-carboxylic acid 14-(3-cyclopentyl-ureido)-4-cyclopropanesulfonylaminocarbonyl-2,15-dioxo-3,16-diaza-tricyclo[14.3.0.0^4,6]nonadec-7-en-18-yl ester], the IC50 on NS3-NS4A protease (read-out: NS3-NS4A IC50) was under 100 nM. The EC50 in experiment [1] (GS4.3 cells, 72 h incubation) is under 1000 nM.

`CC(C)(C)OC(=O)N[C@H]1CCCCC/C=C\[C@@H]2C[C@@]2(C(=O)NS(=O)(=O)c2ccc(C(=O)O)cc2)NC(=O)[C@@H]2C[C@@H](OC(=O)N3Cc4cccc(F)c4C3)CN2C1=O` [AR00365438, (1S,4R,6S,14S,18R)-4-Fluoro-1,3-dihydro-isoindole-2-carboxylic acid 14-tert-butoxycarbonylamino-4-(4-carboxy-benzenesulfonylaminocarbonyl)-2,15-dioxo-3,16-diaza-tricyclo[14.3.0.0^4,6]nonadec-7-en-18-yl ester]: the half-inhibitory concentration (IC50) on NS3-NS4A protease (read-out: NS3-NS4A IC50) is under 100 nM. The 50% effective concentration (EC50) in experiment [1] (GS4.3 cells, 72 h incubation) is under 100 nM.

`CC(C)(C)OC(=O)N[C@H]1CCCCC/C=C\[C@@H]2C[C@@]2(C(=O)NS(=O)(=O)C2CC2)NC(=O)[C@@H]2C[C@@H](OC(=O)N3Cc4ccc(C(=O)O)cc4C3)CN2C1=O` [AR00365084, (1S,4R,6S,14S,18R)-1,3-Dihydro-isoindole-2,5-dicarboxylic acid 2-(14-tert-butoxycarbonylamino-4-cyclopropanesulfonylaminocarbonyl-2,15-dioxo-3,16-diaza-tricyclo[14.3.0.0^4,6]nonadec-7-en-18-yl) ester]: the 50% inhibitory concentration (IC50) on NS3-NS4A protease (read-out: NS3-NS4A IC50) was under 100 nM. The concentration giving a half-maximal response (EC50) in experiment [1] (GS4.3 cells, 72 h incubation) was under 10000 nM.

Regarding `CC(C)(C)OC(=O)N[C@H]1CCCCC/C=C\[C@@H]2C[C@@]2(C(=O)NS(=O)(=O)C2CC2)NC(=O)[C@@H]2C[C@@H](NC(=O)N3Cc4ccccc4C3)CN2C1=O` [AR00304008, (1S,4R,6S,14S,18R)-{4-Cyclopropanesulfonylaminocarbonyl-18-[(1,3-dihydro-isoindole-2-carbonyl)-amino]-2,15-dioxo-3,16-diaza-tricyclo[14.3.0.0^4,6]nonadec-7-en-14-yl}-carbamic acid tert-butyl ester], the IC50 on NS3-NS4A protease (read-out: NS3-NS4A IC50) is under 100 nM. In addition, in experiment [1] (GS4.3 cells, 72 h incubation), the EC50 was under 100 nM.

Consider `O=C(N[C@H]1CCCCC/C=C\[C@@H]2C[C@@]2(C(=O)NS(=O)(=O)C2CC2)NC(=O)[C@@H]2C[C@@H](OC(=O)N3CCc4ccccc4C3)CN2C1=O)O[C@@H]1CCOC1` [AR00304163, (1S,4R,6S,14S,18R)-3,4-Dihydro-1H-isoquinoline-2-carboxylic acid 4-cyclopropanesulfonylaminocarbonyl-2,15-dioxo-14-(tetrahydro-furan-3R-yloxycarbonylamino)-3,16-diaza-tricyclo[14.3.0.0^4,6]nonadec-7-en-18-yl ester], for which the IC50 on NS3-NS4A protease (read-out: NS3-NS4A IC50) was under 100 nM. In addition, in experiment [1] (GS4.3 cells, 72 h incubation), the concentration for a half-maximal effect (EC50) was under 100 nM.

On to `O=C(NC1CCCC1)N[C@H]1CCCCC/C=C\[C@@H]2C[C@@]2(C(=O)NS(=O)(=O)C2CC2)NC(=O)[C@@H]2C[C@@H](OC(=O)N3CCc4ccccc4C3)CN2C1=O` [AR00320403, (1S,4R,6S,14S,18R)-3,4-Dihydro-1H-isoquinoline-2-carboxylic acid 14-(3-cyclopentyl-ureido)-4-cyclopropanesulfonylaminocarbonyl-2,15-dioxo-3,16-diaza-tricyclo[14.3.0.0^4,6]nonadec-7-en-18-yl ester], for which the half-maximal inhibitory concentration (IC50) on NS3-NS4A protease (read-out: NS3-NS4A IC50) is under 100 nM. For the same molecule, in experiment [1] (GS4.3 cells, 72 h incubation), the EC50 was under 1000 nM.

In the case of `CC(C)(C)NC(=O)N[C@H]1CCCCC/C=C\[C@@H]2C[C@@]2(C(=O)NS(=O)(=O)C2CC2)NC(=O)[C@@H]2C[C@@H](OC(=O)N3CCc4ccccc4C3)CN2C1=O` [AR00320001, (1S,4R,6S,14S,18R)-3,4-Dihydro-1H-isoquinoline-2-carboxylic acid 14-(3-tert-butyl-ureido)-4-cyclopropanesulfonylaminocarbonyl-2,15-dioxo-3,16-diaza-tricyclo[14.3.0.0^4,6]nonadec-7-en-18-yl ester], the concentration for half-maximal inhibition (IC50) at NS3-NS4A protease (read-out: NS3-NS4A IC50) is under 100 nM. For the same molecule, in experiment [1] (GS4.3 cells, 72 h incubation), the EC50 was under 100 nM.

Consider `CC(C)(C)OC(=O)N[C@H]1CCCCC/C=C\[C@@H]2C[C@@]2(C(=O)NS(=O)(=O)C2CC2)NC(=O)[C@@H]2C[C@@H](OC(=O)N3Cc4cccc(F)c4C3)CN2C1=O` [AR00334191, (1S,4R,6S,14S,18R)-4-Fluoro-1,3-dihydro-isoindole-2-carboxylic acid 14-tert-butoxycarbonylamino-4-cyclopropanesulfonylaminocarbonyl-2,15-dioxo-3,16-diaza-tricyclo[14.3.0.0^4,6]nonadec-7-en-18-yl ester], for which the half-maximal inhibitory concentration (IC50) at NS3-NS4A protease (read-out: NS3-NS4A IC50) is under 100 nM. Moreover, the EC50 in experiment [1] (GS4.3 cells, 72 h incubation) is under 100 nM.

As to `CN(C)CCOc1ccc2c(c1)CN(C(=O)O[C@@H]1C[C@H]3C(=O)N[C@]4(C(=O)NS(=O)(=O)C5CC5)C[C@H]4/C=C\CCCCC[C@H](NC(=O)OC(C)(C)C)C(=O)N3C1)C2` [AR00345095, (1S,4R,6S,14S,18R)-5-(2-Dimethylamino-ethoxy)-1,3-dihydro-isoindole-2-carboxylic acid 14-tert-butoxycarbonylamino-4-cyclopropanesulfonylaminocarbonyl-2,15-dioxo-3,16-diaza-tricyclo[14.3.0.0^4,6]nonadec-7-en-18-yl ester], the half-maximal inhibitory concentration (IC50) at NS3-NS4A protease (read-out: NS3-NS4A IC50) is under 100 nM. Moreover, in experiment [1] (GS4.3 cells, 72 h incubation), the 50% effective concentration (EC50) was under 100 nM.

As for `CC(C)(C)OC(=O)N[C@H]1CCCCC/C=C\[C@@H]2C[C@@]2(C(=O)NS(=O)(=O)c2ccc(Cl)cc2)NC(=O)[C@@H]2C[C@@H](OC(=O)N3Cc4ccccc4C3)CN2C1=O` [AR00334250, (1S,4R,6S,14S,18R)-1,3-Dihydro-isoindole-2-carboxylic acid 14-tert-butoxycarbonylamino-4-(4-chloro-benzenesulfonylaminocarbonyl)-2,15-dioxo-3,16-diaza-tricyclo[14.3.0.0^4,6]nonadec-7-en-18-yl ester], the IC50 at NS3-NS4A protease (read-out: NS3-NS4A IC50) was under 100 nM. The EC50 in experiment [1] (GS4.3 cells, 72 h incubation) was under 100 nM.

As for `COc1ccc(S(=O)(=O)NC(=O)[C@@]23C[C@H]2/C=C\CCCCC[C@H](NC(=O)OC(C)(C)C)C(=O)N2C[C@H](OC(=O)N4Cc5ccccc5C4)C[C@H]2C(=O)N3)cc1` [AR00334341, (1S,4R,6S,14S,18R)-1,3-Dihydro-isoindole-2-carboxylic acid 14-tert-butoxycarbonylamino-4-(4-methoxy-benzenesulfonylaminocarbonyl)-2,15-dioxo-3,16-diaza-tricyclo[14.3.0.0^4,6]nonadec-7-en-18-yl ester], on NS3-NS4A protease (read-out: NS3-NS4A IC50), the IC50 is under 100 nM. In addition, the EC50 in experiment [1] (GS4.3 cells, 72 h incubation) was under 100 nM.

As for `CC(C)(C)NC(=O)N[C@H]1CCCCC/C=C\[C@@H]2C[C@@]2(C(=O)O)NC(=O)[C@@H]2C[C@@H](OC(=O)N3CCc4ccccc4C3)CN2C1=O` [AR00294377, (1S,4R,6S,14S,18R)-14-(3-tert-Butyl-ureido)-18-(3,4-dihydro-1H-isoquinoline-2-carbonyloxy)-2,15-dioxo-3,16-diaza-tricyclo[14.3.0.0^4,6]nonadec-7-ene-4-carboxylic acid], the IC50 at NS3-NS4A protease (read-out: NS3-NS4A IC50) is under 1000 nM. In addition, in experiment [1] (GS4.3 cells, 72 h incubation), the EC50 is under 10000 nM.

As for `CC(C)(C)OC(=O)N[C@H]1CCCCC/C=C\[C@@H]2C[C@@]2(C(=O)O)NC(=O)[C@@H]2C[C@@H](OC(=O)N3CCc4cc(F)ccc4C3)CN2C1=O` [AR00304063, (1S,4R,6S,14S,18R)-14-tert-Butoxycarbonylamino-18-(6-fluoro-3,4-dihydro-1H-isoquinoline-2-carbonyloxy)-2,15-dioxo-3,16-diaza-tricyclo[14.3.0.0^4,6]nonadec-7-ene-4-carboxylic acid], the IC50 on NS3-NS4A protease (read-out: NS3-NS4A IC50) was under 1000 nM. Also, the EC50 in experiment [1] (GS4.3 cells, 72 h incubation) was under 10000 nM.
